Assay results taken from US11364256B2, “Viral inhibition” (Monash University, priority 2020, dated 2022).

Test system: SARS-CoV-2 clinical isolate Australia/VIC01/2020
Assay: Multidose treatment of SARS-CoV-2 infected Vero/hSLAM or CALU-3 cells, viral load by real-time PCR
Format: cell-based
Conditions: drug replaced at 8, 24, 32 and 48 h, Vero/hSLAM or CALU-3, MOI 0.01
Description: Vero/hSLAM cells (FIG. 4, panels A/C) or CALU-3 (FIG. 4, panels B/D) cells were infected with SARS-CoV-2 clinical isolate Australia/VIC01/2020 (MOI=0.01) for 2 h prior to addition of vehicle (DMSO), Ivermectin (A/B) or Moxidectin (C/D) at the concentrations indicated in FIG. 4. Supernatant was harvested at 8, 24, 32 and 48 h and replaced with fresh media containing the same concentration of drug or DMSO. Samples were quantitated for viral load using real-time PCR. Results represent mean±SD (n=6) relative to DMSO alone under the same conditions. Three parameter dose response curves were fitted using GraphPad prism. The data presented in FIG. 4 are single typical graphs from a series of two similar experiments.

## ivermectin
  effect of multidose treatment on SARS-CoV-2 anti-viral activity: enhances SARS-CoV-2 anti-viral activity compared to single treatment
